pIC50, pKd, pKi: −log10 of the molar value.
Columns and labels:
[1] = biological target: progesterone receptor ligand binding domain (LBD) (Homo sapiens (Human), UniProt P06401); assay: FP assay for binding affinity to progesterone receptor (PolarScreen Progesterone Receptor Competitor Assay); details: GST-tagged PR LBD, Fluormone tracer, fluorescence polarization, 2 hours at room temperature
Protocol: Compounds were tested using the PolarScreen™ Progesterone Receptor Competitor Assay Kit (Life Technologies Cat #A15905 or a15906), as per the manufacturer's instructions. Briefly, GST-tagged PR LBD, Fluormone tracer, and compound were mixed and incubated for 2 hours at room temperature in the dark. Following incubation, the plates were spun at 3000×g for 30 seconds, then sealed with an optical adhesive cover, and fluorescence polarization was measured using appropriate excitation and emission filters with an EnVision Plate Reader (Perkin Elmer). Compound concentration vs. mP value were plotted in Prism (GraphPad). A four-parameter non-linear regression curve fit was applied to dose-response data to determine the half-maximal inhibitory concentration (IC50) for each test compound.

[2] = tested on: T-Rex 293 cell line SC cells having increased expression of progesterone receptor isoform B protein; assay: Cellular growth inhibition, T-Rex 293 SC cells with increased progesterone receptor isoform B expression (doxycycline), CellTiter-Glo; format: cell-based; details: progesterone receptor isoform B induced with 10 ng/mL doxycycline, 72 hours
Protocol: (§1) The following types of cells were prepared for this experiment: (i) a T-Rex 293 cell line having increased expression of progesterone receptor isoform B protein due to exposure to doxycycline and (ii) a T-Rex 293 cell line lacking increased expression of progesterone receptor isoform B protein. Ability of the test compounds to inhibit proliferation of the foregoing cell types was evaluated according to the procedures set forth below.
(§2) The doxycycline-inducible progesterone receptor isoform B protein expressing cell line was established using the following protocol: T-Rex 293 cells were purchased from Invitrogen (Cat #R71007) and transfected using Lipofectamine 2000 with the wild-type progesterone receptor B protein sequence cloned into the pcDNA4/TO vector. Transfected cells were selected using 400 μg/mL Zeocin (Invitrogen Cat #R25001). Following selection, single clones were raised and maintained in Dulbecco's Modified Eagle Medium (DMEM) supplemented with 10% w/w Tetracycline-free fetal bovine serum (FBS) and 250 μg/mL Zeocin. Clones were analyzed for expression of progesterone receptor isoform B protein in the presence and absence of 10 ng/ml doxycycline (Sigma Cat #D9891), and a single doxycycline-inducible clone (hereinafter “SC”) was selected for use in downstream assays.
(§3) The SC cells were seeded on poly-D-lysine coated, black clear-bottom 384-well plates at 2500/well, in 25 μL Phenol Red Free Dulbecco's Modified Eagle Medium (DMEM) supplemented with 10% w/w charcoal-dextran treated fetal bovine serum (FBS) and 1% w/w pen-strep, with or without 10 ng/mL doxycycline. Pen-Strep is a commercially available mixture of penicillin G and streptomycin, which is used in mammalian cell culture media to prevent bacterial contamination. Phenol Red Free Dulbecco's Modified Eagle Medium (DMEM) supplemented with 10% w/w charcoal-dextran treated fetal bovine serum (FBS) and 1% w/w pen-strep, with or without 10 ng/mL doxycycline is herein referred to as Treatment Medium. Following seeding of cells in the plates, the plates were spun at 300×g for 30 seconds, then equilibrated to room temperature for 30 minutes, and then deposited in a humidified tissue culture incubator maintained at 37° C. with 5% CO2.
(§4) At 24 hours after seeding of the cells, dilutions of test compound were prepared in DMSO and dissolved in Treatment Medium, to achieve a final DMSO concentration of 0.5% w/w, thereby providing the Test Compound Solution. A 25 μL aliquot of the Test Compound Solution was added to cells in the well plates. An equal volume of a solution containing DMSO and Treatment Medium was used as a negative control. Following treatment of cells with Test Compound Solution or said equal volume of a solution containing DMSO and Treatment Medium, the plates were spun at 300×g for 30 seconds, and then left in an incubator for 72 hours.
(§5) At the end of the treatment duration, cell viability was quantified with CellTiter-Glo 2.0 reagent (Promega Cat #G9243). For this purpose, plates were equilibrated to room temperature for 30 minutes, and then 25 μL of CellTiter-Glo 2.0 reagent was added to cells in the plate wells. Plates were then agitated on a shaker for two minutes at 500 rpm and subsequently incubated at room temperature for 10 minutes. Following incubation, the plates were spun at 3000×g for 30 seconds, then sealed with an optical adhesive cover, and luminescence readings were measured with an EnVision Plate Reader (Perkin Elmer).
(§6) Data was normalized using zero luminescence for baseline. A four-parameter non-linear regression curve fit was applied to dose-response data in GraphPad Prism data analysis software to determine the half-maximal growth inhibitory concentration (GI50) for each test compound.

[3] = tested on: T-Rex 293 cell line SC cells lacking increased expression of progesterone receptor isoform B protein; assay: Cellular growth inhibition, T-Rex 293 SC cells lacking increased progesterone receptor isoform B expression (no doxycycline), CellTiter-Glo; format: cell-based; details: T-Rex 293 SC cells not exposed to doxycycline, 72 hours
Protocol: as §1, §2, §3, §4, §5, §6

[4] = biological target: progesterone receptor (Homo sapiens, UniProt P06401); assay: PR Human Progesterone NHR Binding (Agonist Radioligand) Assay, [3H]progesterone, T47D cytosol; details: 0.5 nM [3H]progesterone, T47D cytosolic fractions, 1 hour at 4° C., legend words it as Kd
Protocol: Compounds were tested using the PR Human Progesterone NHR Binding (Agonist Radioligand) Assay, Cerep at Eurofins Discovery using a modified version of the protocol from Sarup et al. (Cancer Res 1988; 48:5071-5078). Briefly, cytosolic fractions of T47D cells were incubated with 0.5 nM [^3H]progesterone for 1 hour at 4° C. in the absence or presence of the test compound. Nonspecific binding was determined in the presence of 1 μM promegestone. Reactions were subjected to scintillation counting. Results are expressed as a percent inhibition of the control radioligand specific binding.

[5] = biological target: androgen receptor (Homo sapiens, UniProt P10275); assay: Assay for binding affinity to androgen receptor ([3H]methyltrienolone radioligand, cell cytosol); details: binding to the androgen receptor, 1 nM [3H]methyltrienolone, 24 hr at 4° C.
Protocol: Fractions of cell cytosol (106 cell/point) were incubated for 24 hr at 4° C. with 1 nM [^3H]methyltrienolone in the absence or presence of the test compound in a buffer containing 25 mM Hepes-Tris (pH 7.4), 1 mM EDTA, 10 mM Na2MoO4, 2 mM DTT, 5 µM triamcinolone acetonide, and 10% glycerol. Nonspecific binding was determined in the presence of 1 μM testosterone. Following incubation, the samples were filtered rapidly under vacuum through glass fiber filters (GF/B, Packard) presoaked with 0.3% PEI and rinsed several times with ice-cold 50 mM Tris-HCl using a 96-sample cell harvester (Unifilter, Packard). The filters were dried then counted for radioactivity in a scintillation counter (Topcount, Packard) using a scintillation cocktail (Microscint 0, Packard). The results are expressed as a percent inhibition of the control radioligand specific binding. The standard reference compound is testosterone, which is tested in each experiment at several concentrations to obtain a competition curve from which its IC50 is calculated.

progesterone receptor ligand binding domain (LBD), sequence (P06401 679-913): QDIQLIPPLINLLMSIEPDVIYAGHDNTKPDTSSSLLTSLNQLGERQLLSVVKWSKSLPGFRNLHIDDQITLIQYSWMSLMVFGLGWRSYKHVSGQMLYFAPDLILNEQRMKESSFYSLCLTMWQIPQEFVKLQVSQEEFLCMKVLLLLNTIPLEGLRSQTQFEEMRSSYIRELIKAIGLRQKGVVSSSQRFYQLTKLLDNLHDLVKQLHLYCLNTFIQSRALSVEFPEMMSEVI
progesterone receptor, sequence (P06401 whole entry, looked up): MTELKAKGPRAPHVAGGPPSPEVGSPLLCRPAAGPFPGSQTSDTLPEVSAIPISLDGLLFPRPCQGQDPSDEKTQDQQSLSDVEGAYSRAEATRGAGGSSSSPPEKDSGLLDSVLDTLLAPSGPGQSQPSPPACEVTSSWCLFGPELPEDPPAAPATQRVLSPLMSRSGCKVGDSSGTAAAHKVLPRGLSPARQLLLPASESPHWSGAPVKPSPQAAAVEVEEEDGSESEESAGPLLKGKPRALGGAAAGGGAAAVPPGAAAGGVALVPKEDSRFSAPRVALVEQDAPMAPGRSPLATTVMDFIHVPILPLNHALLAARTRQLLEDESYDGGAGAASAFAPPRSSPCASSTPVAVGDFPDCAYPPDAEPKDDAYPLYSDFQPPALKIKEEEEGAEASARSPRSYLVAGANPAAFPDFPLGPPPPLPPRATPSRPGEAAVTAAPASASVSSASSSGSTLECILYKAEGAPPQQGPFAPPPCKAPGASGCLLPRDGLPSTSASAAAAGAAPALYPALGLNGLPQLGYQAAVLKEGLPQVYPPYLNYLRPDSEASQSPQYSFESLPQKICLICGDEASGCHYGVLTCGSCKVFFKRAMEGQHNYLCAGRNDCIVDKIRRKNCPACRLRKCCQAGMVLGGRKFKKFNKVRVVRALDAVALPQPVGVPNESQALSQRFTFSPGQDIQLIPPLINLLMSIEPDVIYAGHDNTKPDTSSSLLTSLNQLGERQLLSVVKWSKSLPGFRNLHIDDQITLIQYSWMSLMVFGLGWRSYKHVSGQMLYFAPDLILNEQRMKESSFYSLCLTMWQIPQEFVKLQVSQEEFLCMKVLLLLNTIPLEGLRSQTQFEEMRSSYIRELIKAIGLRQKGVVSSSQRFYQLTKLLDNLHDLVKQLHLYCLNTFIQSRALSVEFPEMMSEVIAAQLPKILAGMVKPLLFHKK
androgen receptor, sequence (P10275 whole entry, looked up): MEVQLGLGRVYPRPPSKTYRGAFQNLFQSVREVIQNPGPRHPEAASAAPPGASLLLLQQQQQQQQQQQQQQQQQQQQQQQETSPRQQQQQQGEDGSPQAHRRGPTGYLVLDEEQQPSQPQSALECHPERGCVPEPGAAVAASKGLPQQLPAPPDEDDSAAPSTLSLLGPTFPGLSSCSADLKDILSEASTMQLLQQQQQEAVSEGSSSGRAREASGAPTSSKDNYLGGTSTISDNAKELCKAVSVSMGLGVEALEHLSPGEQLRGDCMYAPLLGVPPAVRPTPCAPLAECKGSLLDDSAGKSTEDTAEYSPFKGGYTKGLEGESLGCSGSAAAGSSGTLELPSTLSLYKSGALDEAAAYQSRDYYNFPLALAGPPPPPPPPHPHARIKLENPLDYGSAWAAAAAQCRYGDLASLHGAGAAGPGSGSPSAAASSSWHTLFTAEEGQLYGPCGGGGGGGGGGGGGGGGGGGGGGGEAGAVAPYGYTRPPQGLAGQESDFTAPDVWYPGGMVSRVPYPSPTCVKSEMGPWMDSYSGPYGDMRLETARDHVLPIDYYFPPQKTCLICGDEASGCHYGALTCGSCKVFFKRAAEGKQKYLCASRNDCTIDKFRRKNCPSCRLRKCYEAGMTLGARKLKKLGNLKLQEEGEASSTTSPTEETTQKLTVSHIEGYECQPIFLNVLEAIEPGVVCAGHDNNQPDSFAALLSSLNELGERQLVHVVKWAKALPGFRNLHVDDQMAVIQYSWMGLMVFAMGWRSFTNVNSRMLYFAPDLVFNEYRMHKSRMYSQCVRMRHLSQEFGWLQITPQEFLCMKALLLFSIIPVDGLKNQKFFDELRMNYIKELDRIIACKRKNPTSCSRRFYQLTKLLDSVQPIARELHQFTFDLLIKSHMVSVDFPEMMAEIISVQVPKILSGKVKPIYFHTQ

pIC50 [1]	Compound	GI50 [2] [nM]	GI50 [3] [nM]	pKi [4]	pKd [5]
6.30 to 7.30	Cn1cc(-c2cc(C(C)(C)O)ccc2Oc2c(F)cc(CCOC3CCN(c4ccc(C(=O)N[C@H]5CC[C@H](Oc6ccc(C#N)c(Cl)c6)CC5)nn4)CC3)cc2F)c2cc[nH]c2c1=O [I-109]				
	Cn1cc(-c2cc(C(C)(C)O)ccc2Oc2ccc(OC3CN(c4ccc(C(=O)N[C@H]5CC[C@H](Oc6ccc(C#N)c(Cl)c6)CC5)nn4)C3)cc2)c2cc[nH]c2c1=O [I-95, N-[4-(3-chloro-4-cyano-phenoxy)cyclohexyl]-6-[3-[4-[4-(1-hydroxy-1-methyl-ethyl)-2-(6-methyl-7-oxo-1H-pyrrolo[2,3-c]pyridin-4-yl)phenoxy]phenoxy]azetidin-1-yl]pyridazine-3-carboxamide]	< 500	< 500		
	CCS(=O)(=O)c1ccc(Oc2cccc(CCCOC3CC4(C3)CN(c3ccc(C(=O)N[C@H]5CC[C@H](Oc6ccc(C#N)c(Cl)c6)CC5)nn3)C4)c2F)c(-c2cn(C)c(=O)c3[nH]ccc23)c1 [I-46]	< 500	< 500		
6.30 to 7.30	CCS(=O)(=O)c1ccc(Oc2cccc(CCC3CCN(c4ccc(C(=O)N[C@H]5CC[C@H](Oc6ccc(C#N)c(Cl)c6)CC5)nn4)CC3)c2F)c(-c2cn(C)c(=O)c3[nH]ccc23)c1 [I-51]				
	CCS(=O)(=O)c1ccc(Oc2cc(F)c(CCC3CCN(c4ccc(C(=O)N[C@H]5CC[C@H](Oc6ccc(C#N)c(Cl)c6)CC5)nn4)CC3)cc2F)c(-c2cn(C)c(=O)c3[nH]ccc23)c1 [I-59]	< 500	500 to 1500		
5.60 to 6.30	Cn1cc(-c2cc(C(C)(C)O)ccc2O[C@H]2C[C@H](N(C)CC3CCN(c4ccc(C(=O)N[C@H]5CC[C@H](Oc6ccc(C#N)c(Cl)c6)CC5)nn4)CC3)C2)c2cc[nH]c2c1=O [I-158, N-((1r,4r)-4-(3-chloro-4-cyanophenoxy)cyclohexyl)-6-(4-((((1r,3r)-3-(4-(2-hydroxypropan-2-yl)-2-(6-methyl-7-oxo-6,7-dihydro-1H-pyrrolo[2,3-c]pyridin-4-yl)phenoxy)cyclobutyl)(methyl)amino)methyl)piperidin-1-yl)pyridazine-3-carboxamide]				
	Cn1cc(-c2cc(C(C)(C)O)ccc2Oc2ccc(CCC3CCN(c4ccc(C(=O)N[C@H]5CC[C@H](Oc6ccc(C#N)c(Cl)c6)CC5)nn4)CC3)cc2)c2cc[nH]c2c1=O [I-102]	< 500	< 500		6.30 to 7.30
6.30 to 7.30	CCS(=O)(=O)c1ccc(Oc2cccc(CCCC3CCN(c4ccc(C(=O)N[C@H]5CC[C@H](Oc6ccc(C#N)c(Cl)c6)CC5)nn4)CC3)c2F)c(-c2cn(C)c(=O)c3[nH]ccc23)c1 [I-52]				

Compound	pIC50 [1]	GI50 [2] [nM]	GI50 [3] [nM]	pKi [4]	pKd [5]
CCS(=O)(=O)Nc1ccc(Oc2cccc(OCCOC3CCN(c4ccc(C(=O)N[C@H]5CC[C@H](Oc6ccc(C#N)c(Cl)c6)CC5)nn4)CC3)c2)c(-c2cn(C)c(=O)c3[nH]ccc23)c1 [I-1, N-[4-(3-chloro-4-cyano-phenoxy)cyclohexyl]-6-[4-[2-[3-[4-(ethylsulfonylamino)-2-(6-methyl-7-oxo-1H-pyrrolo[2,3-c]pyridin-4-yl)phenoxy]phenoxy]ethoxy]-1-piperidyl]pyridazine-3-carboxamide]	5.60 to 6.30	< 500	< 500	5.60 to 6.30	
